Source: paper PMC5218480 (PLoS ONE, 2017)

System: MV-4-11 cells
Assay: Gene expression microarray analysis (Affymetrix PrimeView) and GSEA
Type: cell-based, human
Set-up: RFU PODN (11730768_x_at) / Fold change /veh PODN (11730768_x_at) / RFU LINC00158 (11744669_a_at) / Fold change /veh LINC00158 (11744669_a_at) / RFU DUSP10 (11751237_a_at) / Fold change /veh DUSP10 (11751237_a_at) / RFU ID3 (11757404_x_at) / Fold change /veh ID3 (11757404_x_at) / RFU PLEKHG5 (11737974_s_at) / Fold change /veh PLEKHG5 (11737974_s_at) / RFU LRRC4B (11730491_at) / Fold change /veh LRRC4B (11730491_at) / RFU GIMAP4 (11747438_a_at) / Fold change /veh GIMAP4 (11747438_a_at) / RFU KRT8 (11758183_x_at) / Fold change /veh KRT8 (11758183_x_at) / RFU CNN1 (11734310_a_at) / Fold change /veh CNN1 (11734310_a_at) / RFU VPS37D (11726825_at) / Fold change /veh VPS37D (11726825_at) / RFU C10orf10 (11716522_x_at) / Fold change /veh C10orf10 (11716522_x_at) / RFU KIR2DL2 /// KIR2DL4 /// KIR2DL5A /// KIR2DL5B /// KIR2DS1 /// KIR2DS2 /// KIR2DS3 /// KIR2DS4 /// KIR3DL3 /// KIR3DL3 /// KIR3DS1 (11738374_at) / Fold change /veh KIR2DL2 /// KIR2DL4 /// KIR2DL5A /// KIR2DL5B /// KIR2DS1 /// KIR2DS2 /// KIR2DS3 /// KIR2DS4 /// KIR3DL3 /// KIR3DL3 /// KIR3DS1 (11738374_at) / RFU C1QL1 (11718748_at) / Fold change /veh C1QL1 (11718748_at) / RFU TMPRSS4 (11747572_a_at) / Fold change /veh TMPRSS4 (11747572_a_at) / RFU HAMP (11756126_x_at) / Fold change /veh HAMP (11756126_x_at) / RFU RNFT2 (11725882_a_at) / Fold change /veh RNFT2 (11725882_a_at) / RFU NR4A2 (11747474_a_at) / Fold change /veh NR4A2 (11747474_a_at) / RFU ABCC12 (11746883_a_at) / Fold change /veh ABCC12 (11746883_a_at) / RFU TMEM136 (11760407_x_at) / Fold change /veh TMEM136 (11760407_x_at) / RFU CLDN22 /// WWC2 (11732394_at) / Fold change /veh CLDN22 /// WWC2 (11732394_at) / RFU HLA-DPB1 (11760878_x_at) / Fold change /veh HLA-DPB1 (11760878_x_at) / RFU SPINT1 (11716480_a_at) / Fold change /veh SPINT1 (11716480_a_at) / RFU GAP43 (11754022_s_at) / Fold change /veh GAP43 (11754022_s_at) / RFU A4GNT (11735810_at) / Fold change /veh A4GNT (11735810_at) / RFU PRB3 (11715151_x_at) / Fold change /veh PRB3 (11715151_x_at) / RFU TUBB4B (11761932_at) / Fold change /veh TUBB4B (11761932_at) / RFU CAPN14 (11732068_a_at) / Fold change /veh CAPN14 (11732068_a_at) / RFU TMCC2 (11721928_a_at) / Fold change /veh TMCC2 (11721928_a_at) / RFU IRGQ (11745062_a_at) / Fold change /veh IRGQ (11745062_a_at) / RFU FAM174B (11720279_a_at) / Fold change /veh FAM174B (11720279_a_at) / RFU TMPRSS4 (11748680_a_at) / Fold change /veh TMPRSS4 (11748680_a_at) / RFU FAM212B (11763350_a_at) / Fold change /veh FAM212B (11763350_a_at) / RFU PLEKHG5 (11743358_a_at) / Fold change /veh PLEKHG5 (11743358_a_at) / RFU ZSCAN30 (11745921_a_at) / Fold change /veh ZSCAN30 (11745921_a_at) / RFU CMKLR1 (11741424_a_at) / Fold change /veh CMKLR1 (11741424_a_at) / RFU LOC101060620 /// MAPK8IP1 (11723275_at) / Fold change /veh LOC101060620 /// MAPK8IP1 (11723275_at) / RFU SPTSSB (11747773_x_at) / Fold change /veh SPTSSB (11747773_x_at) / RFU PRSS12 (11739890_at) / Fold change /veh PRSS12 (11739890_at) / RFU BIN1 (11741810_x_at) / Fold change /veh BIN1 (11741810_x_at) / RFU WNT11 (11732464_a_at) / Fold change /veh WNT11 (11732464_a_at) / RFU C10orf10 (11716521_a_at) / Fold change /veh C10orf10 (11716521_a_at) / RFU C5orf56 (11738089_at) / Fold change /veh C5orf56 (11738089_at) / RFU CYB561 (11721691_x_at) / Fold change /veh CYB561 (11721691_x_at) / RFU ANKRD19P (11752326_a_at) / Fold change /veh ANKRD19P (11752326_a_at) / RFU OR2T12 /// OR2T33 /// OR2T8 (11738714_s_at) / Fold change /veh OR2T12 /// OR2T33 /// OR2T8 (11738714_s_at) / RFU VCAN (11748164_a_at) / Fold change /veh VCAN (11748164_a_at) / RFU JSRP1 (11732532_at) / Fold change /veh JSRP1 (11732532_at) / RFU KRTAP10-11 (11738290_x_at) / Fold change /veh KRTAP10-11 (11738290_x_at) / RFU MYO3A (11730013_a_at) / Fold change /veh MYO3A (11730013_a_at) / RFU EBF3 (11725865_a_at) / Fold change /veh EBF3 (11725865_a_at) / RFU CAMK2N1 (11719241_x_at) / Fold change /veh CAMK2N1 (11719241_x_at) / RFU C5orf56 (11738088_a_at) / Fold change /veh C5orf56 (11738088_a_at) / RFU OLFML3 (11715873_a_at) / Fold change /veh OLFML3 (11715873_a_at) / RFU LOC100653217 /// NTM (11731650_a_at) / Fold change /veh LOC100653217 /// NTM (11731650_a_at) / RFU MAPK11 (11762145_a_at) / Fold change /veh MAPK11 (11762145_a_at) / RFU FIZ1 (11724087_x_at) / Fold change /veh FIZ1 (11724087_x_at) / RFU OASL (11726364_x_at) / Fold change /veh OASL (11726364_x_at) / RFU SOX15 (11748057_x_at) / Fold change /veh SOX15 (11748057_x_at) / RFU CD79A (11719716_a_at) / Fold change /veh CD79A (11719716_a_at) / RFU HIST1H1D (11736915_at) / Fold change /veh HIST1H1D (11736915_at) / RFU CASKIN2 (11723855_a_at) / Fold change /veh CASKIN2 (11723855_a_at) / RFU LOC730098 (11760151_x_at) / Fold change /veh LOC730098 (11760151_x_at) / RFU OR4N2 (11742367_at) / Fold change /veh OR4N2 (11742367_at) / RFU PRRT2 (11749266_a_at) / Fold change /veh PRRT2 (11749266_a_at) / RFU SNX32 (11753110_a_at) / Fold change /veh SNX32 (11753110_a_at) / RFU CDHR5 (11726645_a_at) / Fold change /veh CDHR5 (11726645_a_at) / RFU RCAN1 (11760418_a_at) / Fold change /veh RCAN1 (11760418_a_at) / RFU FAM167A (11723789_a_at) / Fold change /veh FAM167A (11723789_a_at) / RFU FAM26E (11764081_at) / Fold change /veh FAM26E (11764081_at) / RFU ISYNA1 (11749810_s_at) / Fold change /veh ISYNA1 (11749810_s_at) / RFU ACY1 (11761880_at) / Fold change /veh ACY1 (11761880_at) / RFU 11764098_at / Fold change /veh 11764098_at / RFU SAMD14 (11745864_x_at) / Fold change /veh SAMD14 (11745864_x_at) / RFU NPB (11741838_a_at) / Fold change /veh NPB (11741838_a_at) / RFU TMPRSS6 (11731388_a_at) / Fold change /veh TMPRSS6 (11731388_a_at) / RFU KRTAP10-2 (11738614_at) / Fold change /veh KRTAP10-2 (11738614_at) / RFU ARHGAP8 /// PRR5-ARHGAP8 (11727945_x_at) / Fold change /veh ARHGAP8 /// PRR5-ARHGAP8 (11727945_x_at) / RFU KRTAP5-7 /// NADSYN1 (11734609_at) / Fold change /veh KRTAP5-7 /// NADSYN1 (11734609_at) / RFU RASL12 (11751679_a_at) / Fold change /veh RASL12 (11751679_a_at) / RFU CDKN2B (11736163_a_at) / Fold change /veh CDKN2B (11736163_a_at) / RFU PRF1 (11729649_at) / Fold change /veh PRF1 (11729649_at) / RFU, ZNF638 /// ZNF638-IT1 / Fold change vs veh, ZNF638 /// ZNF638-IT1 / RFU, PANK3 / Fold change vs veh, PANK3 / RFU, SH3YL1 / Fold change vs veh, SH3YL1 / RFU, ZEB2 / Fold change vs veh, ZEB2 / RFU, NRIP1 / Fold change vs veh, NRIP1 / RFU, PTTG1IP / Fold change vs veh, PTTG1IP / RFU, CAPN2 / Fold change vs veh, CAPN2 / RFU, MED14 / Fold change vs veh, MED14 / RFU, SNORA58 / Fold change vs veh, SNORA58 / RFU, C1orf63 / Fold change vs veh, C1orf63 / RFU, LRRFIP1 / Fold change vs veh, LRRFIP1 / RFU, NDUFAF7 / Fold change vs veh, NDUFAF7 / RFU, SLC12A2 / Fold change vs veh, SLC12A2 / RFU, IBTK / Fold change vs veh, IBTK / RFU, ESF1 / Fold change vs veh, ESF1 / Fold change vs veh, TMEM50B / RFU, TAOK1 / Fold change vs veh, TAOK1 / RFU, ACBD3 / Fold change vs veh, ACBD3 / RFU, TMA16 / Fold change vs veh, TMA16 / RFU, RWDD3 / Fold change vs veh, RWDD3 / RFU, BCAT1 / Fold change vs veh, BCAT1 / RFU, EDEM3 / Fold change vs veh, EDEM3 / RFU, TMEM33 / Fold change vs veh, TMEM33 / RFU, WDR75 / Fold change vs veh, WDR75 / RFU, AHCTF1 / Fold change vs veh, AHCTF1 / RFU, TFRC / Fold change vs veh, TFRC / RFU, ZDHHC17 / Fold change vs veh, ZDHHC17 / RFU, NOM1 / Fold change vs veh, NOM1 / RFU, ARL8B / Fold change vs veh, ARL8B / RFU, ZBTB11 / Fold change vs veh, ZBTB11 / RFU, TAMM41 / Fold change vs veh, TAMM41 / RFU, KIAA1704 /// LOC100996395 / Fold change vs veh, KIAA1704 /// LOC100996395 / RFU, ING1 / Fold change vs veh, ING1 / RFU, TRMT61B / Fold change vs veh, TRMT61B / RFU, FUBP3 / Fold change vs veh, FUBP3 / RFU, TP53 / Fold change vs veh, TP53 / RFU, TNKS2 / Fold change vs veh, TNKS2 / RFU, ZFP14 / Fold change vs veh, ZFP14 / RFU, ACTR2 / Fold change vs veh, ACTR2 / RFU, PPP3R1 / Fold change vs veh, PPP3R1 / RFU, PIK3R1 / Fold change vs veh, PIK3R1 / RFU, HNRNPA1 / Fold change vs veh, HNRNPA1 / RFU, RNF170 / Fold change vs veh, RNF170 / RFU, ZNF28 / Fold change vs veh, ZNF28 / RFU, RNGTT / Fold change vs veh, RNGTT / RFU, OGT / Fold change vs veh, OGT / RFU, BRD1 / Fold change vs veh, BRD1 / RFU, MARS / Fold change vs veh, MARS / RFU, ZNF655 / Fold change vs veh, ZNF655 / RFU, FAHD1 / Fold change vs veh, FAHD1 / RFU, BDP1 / Fold change vs veh, BDP1 / RFU, LRRCC1 / Fold change vs veh, LRRCC1 / RFU, ARID1A / Fold change vs veh, ARID1A / RFU, ZNF146 / Fold change vs veh, ZNF146 / RFU, ZNF330 / Fold change vs veh, ZNF330 / RFU, GPN3 / Fold change vs veh, GPN3 / RFU, C9orf123 / Fold change vs veh, C9orf123 / RFU, N4BP2L2 / Fold change vs veh, N4BP2L2 / RFU, ARFIP1 / Fold change vs veh, ARFIP1 / RFU, FAM179B / Fold change vs veh, FAM179B / RFU, BCL10 / Fold change vs veh, BCL10 / RFU, UHRF1BP1L / Fold change vs veh, UHRF1BP1L / RFU, BET1 / Fold change vs veh, BET1 / RFU, CNOT2 / Fold change vs veh, CNOT2 / RFU, ZNF268 / Fold change vs veh, ZNF268 / Fold change vs veh, ZNF507 / RFU, DGCR2 / Fold change vs veh, DGCR2 / RFU, WDSUB1 / Fold change vs veh, WDSUB1 / Fold change vs veh, HSP90B1 /// MIR3652 / RFU, ADSS / Fold change vs veh, ADSS / RFU, GK / Fold change vs veh, GK / RFU, ZNF148 / Fold change vs veh, ZNF148 / RFU, TAF9 / Fold change vs veh, TAF9 / RFU, SLC1A5 / Fold change vs veh, SLC1A5 / RFU, SLMO2 / Fold change vs veh, SLMO2 / RFU, ABCC4 / Fold change vs veh, ABCC4 / RFU, LOC101060439 /// RAP1B / Fold change vs veh, LOC101060439 /// RAP1B / RFU, RFX7 / Fold change vs veh, RFX7 / RFU, GTPBP10 / Fold change vs veh, GTPBP10 / RFU, CNEP1R1 / Fold change vs veh, CNEP1R1 / RFU, BIVM-ERCC5 /// ERCC5 / Fold change vs veh, BIVM-ERCC5 /// ERCC5 / RFU, ILF3 / Fold change vs veh, ILF3 / RFU 11762660_at / Fold change /veh 11762660_at / RFU VCAN (11757783_s_at) / Fold change /veh VCAN (11757783_s_at) / RFU DDX43 (11728927_at) / Fold change /veh DDX43 (11728927_at) / RFU KRT8 (11758188_x_at) / Fold change /veh KRT8 (11758188_x_at) / RFU NKD1 (11759106_at) / Fold change /veh NKD1 (11759106_at) / RFU SRD5A1 (11742802_a_at) / Fold change /veh SRD5A1 (11742802_a_at) / RFU TPSAB1 /// TPSB2 (11721975_s_at) / Fold change /veh TPSAB1 /// TPSB2 (11721975_s_at) / RFU GSTM3 (11746129_a_at) / Fold change /veh GSTM3 (11746129_a_at) / RFU IL23R (11737362_x_at) / Fold change /veh IL23R (11737362_x_at) / RFU TMEM51 (11727254_a_at) / Fold change /veh TMEM51 (11727254_a_at) / RFU PIWIL2 (11732686_x_at) / Fold change /veh PIWIL2 (11732686_x_at) / RFU ORM1 (11744905_x_at) / Fold change /veh ORM1 (11744905_x_at) / RFU CCDC152 (11743942_at) / Fold change /veh CCDC152 (11743942_at) / RFU ECM1 (11717891_a_at) / Fold change /veh ECM1 (11717891_a_at) / RFU IL23R (11748794_a_at) / Fold change /veh IL23R (11748794_a_at) / RFU TNFAIP8L3 (11732012_x_at) / Fold change /veh TNFAIP8L3 (11732012_x_at) / RFU MBOAT4 (11741988_at) / Fold change /veh MBOAT4 (11741988_at) / RFU 11764193_at / Fold change /veh 11764193_at / RFU TMEM53 (11763286_at) / Fold change /veh TMEM53 (11763286_at) / RFU MAGEB2 (11727129_at) / Fold change /veh MAGEB2 (11727129_at) / RFU TMEM200A (11744735_a_at) / Fold change /veh TMEM200A (11744735_a_at) / RFU CCDC152 (11751479_a_at) / Fold change /veh CCDC152 (11751479_a_at) / RFU FAM211A (11726209_a_at) / Fold change /veh FAM211A (11726209_a_at) / RFU RGS16 (11746705_a_at) / Fold change /veh RGS16 (11746705_a_at) / RFU VCAN (11755009_s_at) / Fold change /veh VCAN (11755009_s_at) / RFU RHOB (11743442_s_at) / Fold change /veh RHOB (11743442_s_at) / RFU RGS16 (11720943_a_at) / Fold change /veh RGS16 (11720943_a_at) / RFU RGS16 (11720944_at) / Fold change /veh RGS16 (11720944_at) / RFU, VPS4B / Fold change vs veh, VPS4B / RFU, CREB1 / Fold change vs veh, CREB1 / RFU, DNAJC13 / Fold change vs veh, DNAJC13 / RFU, GNAQ / Fold change vs veh, GNAQ / RFU, CDK5R1 / Fold change vs veh, CDK5R1 / RFU, ZRANB3 / Fold change vs veh, ZRANB3 / RFU, CUL4A / Fold change vs veh, CUL4A / RFU, CCNY / Fold change vs veh, CCNY / RFU, UFL1 / Fold change vs veh, UFL1 / RFU, COG3 / Fold change vs veh, COG3 / RFU, DIAPH2 / Fold change vs veh, DIAPH2 / RFU, SKA2 / Fold change vs veh, SKA2 / RFU, AFF3 / Fold change vs veh, AFF3 / RFU, LMF1 / Fold change vs veh, LMF1 / RFU, IPO11 / Fold change vs veh, IPO11 / RFU, DFFB / Fold change vs veh, DFFB / RFU, FOXP1 / Fold change vs veh, FOXP1 / RFU, CARD8 / Fold change vs veh, CARD8 / RFU, STRN3 / Fold change vs veh, STRN3 / RFU, ADK / Fold change vs veh, ADK / RFU, RASSF2 / Fold change vs veh, RASSF2 / RFU, WIPF1 / Fold change vs veh, WIPF1 / RFU, LARP1B / Fold change vs veh, LARP1B / RFU, RASA1 / Fold change vs veh, RASA1 / RFU, RB1 / Fold change vs veh, RB1 / RFU, PPFIA1 / Fold change vs veh, PPFIA1 / RFU, MAT2A / Fold change vs veh, MAT2A / RFU, CCT5 / Fold change vs veh, CCT5 / RFU, WDR92 / Fold change vs veh, WDR92 / RFU, CUX1 / Fold change vs veh, CUX1 / RFU, TTC7A / Fold change vs veh, TTC7A / RFU, TMEM135 / Fold change vs veh, TMEM135 / RFU, DEPTOR / Fold change vs veh, DEPTOR / RFU, CPM / Fold change vs veh, CPM / RFU, DNAJB6 / Fold change vs veh, DNAJB6 / RFU, CACNA2D3 / Fold change vs veh, CACNA2D3 / RFU, DTX4 / Fold change vs veh, DTX4 / RFU, TFCP2 / Fold change vs veh, TFCP2 / RFU, GMCL1 /// GMCL1P1 / Fold change vs veh, GMCL1 /// GMCL1P1 / RFU, AEBP2 / Fold change vs veh, AEBP2 / RFU, SNHG1 /// SNORD22 /// SNORD25 /// SNORD26 /// SNORD27 /// SNORD28 /// SNORD29 /// SNORD31 / Fold change vs veh, SNHG1 /// SNORD22 /// SNORD25 /// SNORD26 /// SNORD27 /// SNORD28 /// SNORD29 /// SNORD31 / Fold change (Aza/veh), C12orf56 (ProbeSet 11735607_a_at) / Fold change (ACY-1035/veh), C12orf56 (ProbeSet 11735607_a_at) / Fold change (Aza/veh), FGFR1OP (ProbeSet 11751329_s_at) / Fold change (ACY-1035/veh), FGFR1OP (ProbeSet 11751329_s_at) / Fold change (Aza/veh), VPS36 (ProbeSet 11739960_a_at) / Fold change (ACY-1035/veh), VPS36 (ProbeSet 11739960_a_at) / RFU SYPL1 (11715823_x_at) / Fold change /veh SYPL1 (11715823_x_at) / RFU IGFBP7 (11715501_s_at) / Fold change /veh IGFBP7 (11715501_s_at) / RFU REEP3 (11722064_at) / Fold change /veh REEP3 (11722064_at) / RFU IGLL1 (11728026_x_at) / Fold change /veh IGLL1 (11728026_x_at): dose or concentration left out as unconfirmed
Conditions: ProbeSet 11732370_a_at; LIST D

SMILES: Nc1ccc(-c2cccs2)cc1NC(=O)c1ccc2c(c1)cc(C1CC1)n2CCN1CCOCC1 [ACY-1035]
- Fold change vs veh, CUX1: 0.84
